Results taken from patent publication US5807985A, “Oligopeptide compounds containing D-2-alkyltryptophan capable of promoting the release of growth hormone” (priority 1997, dated 1998).
Read-outs that look alike come from different tables or passages of the source. Peptide text beside a SMILES is read from it.

Tests used:
[1] = target: Human hypothalamus tissue; test: Inhibition of 125I-Tyr-Ala-HEXARELIN binding to human hypothalamus tissue membranes; settings: for IC50: human hypothalamus tissue; for percent of inhibition of 125I-Tyr-Ala-HEXARELIN specifically bound / specific binding of 125I-Tyr-Ala-HEXARELIN/0.1 mg membrane protein: hypothalamus
Experimental: (§1) The peptides of Examples 3 and 6 were further studied for inhibition of ^125 I--Tyr--Ala--HEXARELIN binding to human tissue. HEXARELIN is His--D--Mrp--Ala--Trp--D--Phe--Lys--NH2 where Mrp is 2-methyltryptophan.
(§2) Tissue membranes (0.1 mg protein) obtained from the heart and hypothalamus of two different adult subjects were incubated in triplicate with a subsaturating concentration (34 pM, about 48,000 cpm, for heart tissue and 42 pM, about 60,000 cpm, for hypothalamus tissue) of ^125 I--Tyr--Ala--HEXARELIN for 40 min at 0° C. in the absence and in the presence of increasing concentrations of the indicated unlabelled peptides. The value in parentheses represents the percent of inhibition of ^125 1I--Tyr--Ala--HEXARELIN specifically bound.
(§3) The specific binding of ^125 I--Tyr--Ala--HEXARELIN/0.1 mg membrane protein is expressed as a percent of total radioactivity added.

[2] = system: Human heart tissue; test: Inhibition of 125I-Tyr-Ala-HEXARELIN binding to human heart tissue membranes; settings: for percent of inhibition of 125I-Tyr-Ala-HEXARELIN specifically bound / specific binding of 125I-Tyr-Ala-HEXARELIN/0.1 mg membrane protein: heart; for IC50: human heart tissue
Experimental: as §1, §2, §3

[3] = mean of subjects 1 and 2, read-out: mean IC50 value
[4] = subject 1, read-out: IC50 value
[5] = subject 2, read-out: IC50 value

Cc1[nH]c2ccccc2c1C[C@@H](NC(=O)[C@@H](N)Cc1cnc[nH]1)C(=O)N[C@@H](C)C(=O)N[C@@H](Cc1c[nH]c2ccccc12)C(=O)N[C@H](Cc1ccccc1)C(=O)N[C@@H](CCCCN)C(N)=O [HEXARELIN, His--D--Mrp--Ala--Trp--D--Phe--Lys--NH2] (HELM PEPTIDE1{H.[Cc1[nH]c2ccccc2c1C[C@@H](N[*:1])C(=O)[*:2]].A.W.[dF].K.[am]}$$$$V2.0)
IC50 [1, 3]: 7 nM | IC50 [1, 4]: 8.9 nM | IC50 [1, 5]: 5 nM | percent of inhibition of 125I-Tyr-Ala-HEXARELIN specifically bound ([1]; 0.1 nM peptide, subject 1): 3% | specific binding of 125I-Tyr-Ala-HEXARELIN/0.1 mg membrane protein ([1]; 0.1 nM peptide, subject 1): 10.7% of total radioactivity | percent of inhibition of 125I-Tyr-Ala-HEXARELIN specifically bound ([1]; 0.1 nM peptide, subject 2): 4% | specific binding of 125I-Tyr-Ala-HEXARELIN/0.1 mg membrane protein ([1]; 0.1 nM peptide, subject 2): 9.1% of total radioactivity | percent of inhibition of 125I-Tyr-Ala-HEXARELIN specifically bound ([1]; 1 nM peptide, subject 1): 16% | specific binding of 125I-Tyr-Ala-HEXARELIN/0.1 mg membrane protein ([1]; 1 nM peptide, subject 1): 9.6% of total radioactivity | percent of inhibition of 125I-Tyr-Ala-HEXARELIN specifically bound ([1]; 1 nM peptide, subject 2): 19% | specific binding of 125I-Tyr-Ala-HEXARELIN/0.1 mg membrane protein ([1]; 1 nM peptide, subject 2): 7.7% of total radioactivity | percent of inhibition of 125I-Tyr-Ala-HEXARELIN specifically bound ([1]; 10 nM peptide, subject 1): 51% | specific binding of 125I-Tyr-Ala-HEXARELIN/0.1 mg membrane protein ([1]; 10 nM peptide, subject 1): 5.2% of total radioactivity | percent of inhibition of 125I-Tyr-Ala-HEXARELIN specifically bound ([1]; 10 nM peptide, subject 2): 67% | specific binding of 125I-Tyr-Ala-HEXARELIN/0.1 mg membrane protein ([1]; 10 nM peptide, subject 2): 3.1% of total radioactivity | percent of inhibition of 125I-Tyr-Ala-HEXARELIN specifically bound ([1]; 100 nM peptide, subject 1): 89% | specific binding of 125I-Tyr-Ala-HEXARELIN/0.1 mg membrane protein ([1]; 100 nM peptide, subject 1): 1.2% of total radioactivity | percent of inhibition of 125I-Tyr-Ala-HEXARELIN specifically bound ([1]; 100 nM peptide, subject 2): 93% | specific binding of 125I-Tyr-Ala-HEXARELIN/0.1 mg membrane protein ([1]; 100 nM peptide, subject 2): 0.7% of total radioactivity | percent of inhibition of 125I-Tyr-Ala-HEXARELIN specifically bound ([1]; 1000 nM peptide, subject 1): 100% | specific binding of 125I-Tyr-Ala-HEXARELIN/0.1 mg membrane protein ([1]; 1000 nM peptide, subject 1): 0% of total radioactivity | percent of inhibition of 125I-Tyr-Ala-HEXARELIN specifically bound ([1]; 1000 nM peptide, subject 2): 100% | specific binding of 125I-Tyr-Ala-HEXARELIN/0.1 mg membrane protein ([1]; 1000 nM peptide, subject 2): 0% of total radioactivity | percent of inhibition of 125I-Tyr-Ala-HEXARELIN specifically bound ([2]; 0.1 nM peptide, subject 1): 4% | specific binding of 125I-Tyr-Ala-HEXARELIN/0.1 mg membrane protein ([2]; 0.1 nM peptide, subject 1): 20.1% of total radioactivity | percent of inhibition of 125I-Tyr-Ala-HEXARELIN specifically bound ([2]; 0.1 nM peptide, subject 2): 5% | specific binding of 125I-Tyr-Ala-HEXARELIN/0.1 mg membrane protein ([2]; 0.1 nM peptide, subject 2): 22.8% of total radioactivity | percent of inhibition of 125I-Tyr-Ala-HEXARELIN specifically bound ([2]; 1 nM peptide, subject 1): 20% | specific binding of 125I-Tyr-Ala-HEXARELIN/0.1 mg membrane protein ([2]; 1 nM peptide, subject 1): 16.9% of total radioactivity | percent of inhibition of 125I-Tyr-Ala-HEXARELIN specifically bound ([2]; 1 nM peptide, subject 2): 28% | specific binding of 125I-Tyr-Ala-HEXARELIN/0.1 mg membrane protein ([2]; 1 nM peptide, subject 2): 17.3% of total radioactivity | percent of inhibition of 125I-Tyr-Ala-HEXARELIN specifically bound ([2]; 10 nM peptide, subject 1): 51% | specific binding of 125I-Tyr-Ala-HEXARELIN/0.1 mg membrane protein ([2]; 10 nM peptide, subject 1): 10.4% of total radioactivity | percent of inhibition of 125I-Tyr-Ala-HEXARELIN specifically bound ([2]; 10 nM peptide, subject 2): 56% | specific binding of 125I-Tyr-Ala-HEXARELIN/0.1 mg membrane protein ([2]; 10 nM peptide, subject 2): 10.5% of total radioactivity | percent of inhibition of 125I-Tyr-Ala-HEXARELIN specifically bound ([2]; 100 nM peptide, subject 1): 92% | specific binding of 125I-Tyr-Ala-HEXARELIN/0.1 mg membrane protein ([2]; 100 nM peptide, subject 1): 1.7% of total radioactivity | percent of inhibition of 125I-Tyr-Ala-HEXARELIN specifically bound ([2]; 100 nM peptide, subject 2): 90% | specific binding of 125I-Tyr-Ala-HEXARELIN/0.1 mg membrane protein ([2]; 100 nM peptide, subject 2): 2.4% of total radioactivity | percent of inhibition of 125I-Tyr-Ala-HEXARELIN specifically bound ([2]; 1000 nM peptide, subject 1): 100% | specific binding of 125I-Tyr-Ala-HEXARELIN/0.1 mg membrane protein ([2]; 1000 nM peptide, subject 1): 0% of total radioactivity | percent of inhibition of 125I-Tyr-Ala-HEXARELIN specifically bound ([2]; 1000 nM peptide, subject 2): 100% | specific binding of 125I-Tyr-Ala-HEXARELIN/0.1 mg membrane protein ([2]; 1000 nM peptide, subject 2): 0% of total radioactivity | IC50 [2, 3]: 9.5 nM | IC50 [2, 4]: 10.6 nM | IC50 [2, 5]: 8.3 nM
